Measurements from patent publication US20230225990A1, “DIMETHYL SULFONE FOR TREATMENT OF CHRONICALLY HEAT STRESSED POULTRY” (Evonik Operations GmbH, priority 2020, published 2023).
Marks after values point to notes of the source that are not given here.

How the values were obtained:
[1] = tested on: male broilers subjected to chronic cyclic heat stress; assay: Animal performance (BW, ADG, ADFI, F:G, mortality, EPEF) with chronic cyclic heat stress in the finisher phase; type: in vivo, broiler chickens (Ross 308); conditions: for FIhs (percentage of total feed intake consumed during hours of heat stress): 6 h heat stress per day, d-24 till d-39; for F:G corrected: total d0-d39, corrected to final body weight of 3050 g
Text: The experimental design consisted of one control group (T1) and two other groups receiving the control diet supplemented with increasing levels of DMS (dimethyl sulfone), specifically 0.1% DMS (T2) and 0.2% DMS (T3). Treatments were replicated in 12 pens each in a completely randomized block design. Block refers to physical allocation in the experimental facility. All the animal trial was realized in compliance with the Ethics Committee of Faculty of Veterinary Medicine (Ghent University, EC2018-71).
The experiment was conducted at the experimental facilities of the Department of Animal Sciences and Aquatic Ecology of Ghent University, located in Melle, Belgium. A total of 792 male broiler chickens (Ross 308, Aviagen Group) were provided by Vervaeke-Belavi hatchery (Tielt, Belgium). Larger treatment effects are expected with males, as they are more sensitive to heat stress (HS) (Cahaner and Leenstra, 1992). The experiment consisted in three rearing phases: starter (from d-0 to d-10), grower (from d-10 to d-21) and finisher (from d-21 to d-39). The one-day old chicks were weighted and equally spread among the pens according to their body weight (BW). Pens were randomly allocated to the treatment groups. The initial average animal BW was 41.3±0.31 g at the beginning of the experiment. The newly selected chicks were housed in a single climate-controlled room, which contained 36 pens of 22 animals each. […] The room was equipped with liner drinkers (two nipples per pen), and each pen had one tube-type metallic feeder. Temperature in starter and grower phase was set to decrease linearly from 34° C., at d-0 until a basal temperature of 22° C., at d-24. The light of the room was turned on 23 h in period d-0 to d-7, and then turned on at 4:00 and switched off at 22:00 during the rest of the experiment (18L:6D).
The finisher period started at d-21, and the chronic cyclic heat stress (HS) protocol was applied from d-24 until d-39. Starting from d-24, the temperature was increased from 22° C. to 34° C. for 6 hours per day (from 9:00 to 15:00) with relative air humidity (RH) between 52 and 58%. From 8:00 to 9:00, the temperature was increased from 22° C. to 34° C., and from 15:00 to 16:00, the temperature was decreased from 34° C. to 22° C. The rest of the day the temperature was 22° C. The room was equipped with heaters with thermostats, and air circulators to enable the desired temperature and RH to be maintained, providing sufficient ventilation and air conditions. RH was adjusted with manual spraying of water on stable walls, periodically. The temperature and the RH were recorded at 10-min intervals with a dry bulb thermo-hygrometer (Escort RH iLog, Escort Verification Technologies Inc., Buchanan, United States).
Wheat and soybean meal-based feeds were formulated to meet the nutrient requirements of broiler chickens, according to Ross308 recommendations or slightly lower to avoid excessive mortality in the finisher phase. […] The final formulation was approved by the commissioner. The test substance dimethyl sulfone was added on top at 0.1 and 0.2% in T2 and T3 in all rearing phases, respectively. Diets were processed by Research Dietary Services (RDS, Wijk bij Duurstede, The Netherlands) and delivered to Ghent University. All the diets were provided as pellets during all rearing phases. The chickens were fed ad libitum and had free access to water during the whole experiment.
For all performance indices, the pen is the experimental unit. Total feed intake (FI) was recorded for each rearing period. In addition, FI during HS period was recorded every day, weighing the feeders before (at 8:00) and after (at 16:00) HS every day. That allows the calculation of the relative FI during period with HS relative to the total FI for each day during HS (d-24 to d-39). The total body weight (BW) of each pen was recorded at d-0, d-10, d-21 and d-39, and divided by the number of chickens in the pen at that day to have the average BW for each pen. […]

[2] = tested on: chronically heat stressed poultry; assay: Litter moisture; type: in vivo; conditions: control diet+0.05 wt.-% DMS; d-42
Text: For this purpose, two treatments (T1: control diet, and T2: control diet+0.05 wt.-% DMS) were done with 13 replicate pens each and 10 birds per pen. Collection of litter was done at days 28 and 42 to determine litter moisture. The sampling of the litter was done in five different points in each pen (each corner and the centre of each pen) and then homogenized to compose the representative sample of the pen. […] Calculating was done according to the formula: […]

[3] = 0.1% DMS in diet (T2), d-24 to d-39, excluding pen 24
[4] = 0.1% DMS in diet (T2), finisher d21-d39, heat stress d-24 till d-39
[5] = 0.1% DMS in diet (T2), grower d10-d21
[6] = 0.1% DMS in diet (T2), starter d0-d10
[7] = 0.1% DMS in diet (T2), total d0-d39
[8] = 0.2% DMS in diet (T3), d-24 to d-39, excluding pen 24
[9] = 0.2% DMS in diet (T3), finisher d21-d39, heat stress d-24 till d-39
[10] = 0.2% DMS in diet (T3), grower d10-d21
[11] = 0.2% DMS in diet (T3), starter d0-d10
[12] = 0.2% DMS in diet (T3), total d0-d39

CS(C)(=O)=O [DMS, dimethyl sulfone]
FIhs (percentage of total feed intake consumed during hours of heat stress) ([1]; 0.1% DMS in diet (T2)): 27.9%
Cases of mortality [1, 3]: 10
Cases of mortality+culling [1, 3]: 12
Cases of mortality+culling ([1]; 0.1% DMS in diet (T2), d-24 to d-39, pen 24 included): 17
ADFI [1, 4]: 179 g/day
ADG [1, 4]: 106 g/day
F:G [1, 4]: 1.71
Final BW [1, 4]: 3100 g
Mortality [1, 4]: 4.7%
Mortality + culling [1, 4]: 6.0%
ADFI [1, 5]: 103 g/day
ADG [1, 5]: 75.5^a g/d
ADG higher as compared to control [1, 5]: 2.6%
F:G [1, 5]: 1.36^b
F:G reduced as compared to control [1, 5]: 6 points
Final BW [1, 5]: 1189 g
Mortality [1, 5]: 1.1%
Mortality + culling [1, 5]: 1.1%
ADFI [1, 6]: 32.5 g/day
ADG [1, 6]: 31.7 g/day
F:G [1, 6]: 1.03
Final BW [1, 6]: 359 g
Mortality [1, 6]: 0.0%
Mortality + culling [1, 6]: 0.0%
ADFI [1, 7]: 116 g/day
ADG [1, 7]: 78.4 g/day
EPEF (European production efficiency factor) [1, 7]: 488
F:G [1, 7]: 1.53
Mortality [1, 7]: 5.9%
Mortality + culling [1, 7]: 7.3%
F:G corrected ([1]; 0.1% DMS in diet (T2)): 1.54
FIhs (percentage of total feed intake consumed during hours of heat stress) ([1]; 0.2% DMS in diet (T3)): 27.9%
Cases of mortality [1, 8]: 8
Cases of mortality+culling [1, 8]: 8
Cases of mortality+culling ([1]; 0.2% DMS in diet (T3), d-24 to d-39, pen 24 included): 8
ADFI [1, 9]: 178 g/day
ADG [1, 9]: 104 g/day
F:G [1, 9]: 1.72
Final BW [1, 9]: 3066 g
Mortality [1, 9]: 3.1%
Mortality + culling [1, 9]: 3.1%
ADFI [1, 10]: 102 g/day
ADG [1, 10]: 76.1^a g/d
ADG higher as compared to control [1, 10]: 3.4%
F:G [1, 10]: 1.35^b
F:G reduced as compared to control [1, 10]: 7 points
Final BW [1, 10]: 1194 g
Mortality [1, 10]: 0.4%
Mortality + culling [1, 10]: 0.8%
ADFI [1, 11]: 32.3 g/day
ADG [1, 11]: 31.6 g/day
F:G [1, 11]: 1.03
Final BW [1, 11]: 357 g
Mortality [1, 11]: 0.8%
Mortality + culling [1, 11]: 0.8%
ADFI [1, 12]: 117 g/day
ADG [1, 12]: 77.6 g/day
EPEF (European production efficiency factor) [1, 12]: 491
F:G [1, 12]: 1.54
Mortality [1, 12]: 4.2%
Mortality + culling [1, 12]: 4.5%
F:G corrected ([1]; 0.2% DMS in diet (T3)): 1.54
Moisture content in the litter [2]: clear reduction
